According to patent publication US12258338B2, “Modulators of the integrated stress response pathway” (EVOTEC INTERNATIONAL GMBH, priority 2019, dated 2025):
Values after ≈ are worked out from the molar mass of the structure shown. Where two headings read alike, the source gives them in different places.

Legend:
[1] = Thermodynamic (Equilibrium) solubility in selected buffer; format: physicochemical; conditions: for solubility: aqueous buffer, thermodynamic from solid
How it was run: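 Powdered compound at 1 mg/mL target in 50 mM phosphate pH 2.0, 50 mM acetate pH 5.5 or 50 mM phosphate pH 7.4, stirred overnight at r.t. in the dark, then 0.45 μm filtered. Filtrate quantified by UPLC-UV peak area against a 0.8 mg/mL DMSO reference.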

[2] = Log D 7.4 assay (1-octanol / phosphate buffer pH 7.4); format: physicochemical
Experimental: Phosphate buffer (1 M) was diluted to 20 mM with deionised water and adjusted to pH 7.4 (±0.05) with phosphoric acid or sodium hydroxide. A 1:1 mixture of phosphate buffer (20 mM) and 1-octanol were saturated by tumbling overnight after which time the two phases were separated. Using an automated liquid handler the following procedure was carried out: 20 mM DMSO stocks of assay and control compounds were reformatted to provide cassettes of 4 compounds per well giving a final concentration of 5 mM per compound. In duplicate 5 μL of the cassetted compounds were added to 495 μL 1-octanol (saturated with buffer) followed by 495 μL of buffer (saturated with 1-octanol) in a 96-well plate giving final incubation concentrations of 25 μM (50 μM max concentration in either layer if all compound partitioned into a single matrix). The layers were mixed by aspirating and dispensing the buffer and octanol layers into one another three times. The plate was sealed, shaken for 120 minutes and then centrifuged at 25° C. for 15 min at 4600 rpm. The 1-octanol and buffer layer were sampled separately (ensuring no cross contamination) and the respective samples diluted with 60:40 ACN:0.1 M ammonium acetate pH 7.4 (containing external standard; Sulfisoxazole, assay concentration 120 nM) to obtain final theoretical maximum concentrations of the 1-octanol layer of 0.025 μM, 0.5 μM and a buffer layer concentration of 0.5 μM. The second buffer sample was prepared by diluting the assay buffer layer with acetonitrile (containing external standard; Sulfisoxazole, assay concentration 120 nM) to give a theoretical maximum concentration of 20 μM. The analytical samples were analysed by LC-MS/MS and the Log D calculated as shown:
[formula] Where PA=Peak area and ES=External standard

[3] = acetate buffer 50 mM, pH 5, Table 24, read-out: Solubility (μg/mL) pH 5
[4] = acetate buffer 50 mM, pH 5.5, Table 25, read-out: Solubility (μg/mL) pH 5.5
[5] = phosphate buffer 50 mM, pH 7.4, Table 24, read-out: Solubility (μg/mL) pH 7.4

Row | solubility [1, 3] [µg/mL] | solubility [1, 4] [µg/mL] | Solubility (μg/mL) pH 2 ([1]; pH 2, Table 24) | Solubility (μg/mL) pH 2.0 ([1]; pH 2.0, Table 25) | solubility [1, 5] [µg/mL] | logD at 120 min [2] | solubility ([1]; phosphate buffer 50 mM, pH 2, Table 24, read-out: Solubility (μg/mL) pH 2) [µg/mL] | Compound
1 | 78 (≈ 158 µM) | 78 (≈ 158 µM) | quant.^# | quant.^# | 63 (≈ 128 µM) | 2.7 | – | O=C(COc1ccc(Cl)c(F)c1)N[C@H]1CC[C@H](c2nnc([C@H]3C[C@@H](OC(F)(F)F)C3)o2)NC1 [Example 50, 2-(4-chloro-3-fluorophenoxy)-N-[(3S,6R)-6-{5-[(1s,3s)-3-(trifluoromethoxy)cyclobutyl]-1,3,4-oxadiazol-2-yl}piperidin-3-yl]acetamide]
2 | 156 (≈ 345 µM) | 156 (≈ 345 µM) | – | – | 90 (≈ 199 µM) | 2.3 | 907 (≈ 2000 µM) | O=C(COc1ccc(Cl)c(F)c1)N[C@H]1CC[C@H](c2nnc(COC(F)(F)F)o2)NC1 [Example 61, 2-(4-chloro-3-fluorophenoxy)-N-[(3S,6R)-6-(5-[(trifluoromethoxy)methyl]-1,3,4-oxadiazol-2-yl}piperidin-3-yl]acetamide]
